From patent publication US20130209439A1, “INHIBITORS OF PDE4 BINDING TO HSP20” (THE UNIVERSITY COURT OF THE UNIVERSITY OF GLASGOW, priority 2010, published 2013) come the findings set out here.

The labels stand for the following.
B1: GST-PDE4D5 (enzyme)
chain: MAQQTSPDTLTVPEVDNPHCPNPWLNEDLVKSLRENLLQHEKSKTARKSVSPKLSPVISPRNSPRLLRRMLLSSNIPKQRRFTVAHTCFDVDNGTSAGRSPLDPMTSPGSGLILQANFVHSQRRESFLYRSDSDYDLSPKSMSRNSSIASDIHGDDLIVTPFAQVLASLRTVRNNFAALTNLQDRAPSKRSPMCNQPSINKATITEEAYQKLASETLEELDWCLDQLETLQTRHSVSEMASNKFKRMLNRELTHLSEMSRSGNQVSEFISNTFLDKQHEVEIPSPTQKEKEKKKRPMSQISGVKKLMHSSSLTNSSIPRFGVKTEQEDVLAKELEDVNKWGLHVFRIAELSGNRPLTVIMHTIFQERDLLKTFKIPVDTLITYLMTLEDHYHADVAYHNNIHAADVVQSTHVLLSTPALEAVFTDLEILAAIFASAIHDVDHPGVSNQFLINTNSELALMYNDSSVLENHHLAVGFKLLQEENCDIFQNLTKKQRQSLRKMVIDIVLATDMSKHMNLLADLKTMVETKKVTSSGVLLLDNYSDRIQVLQNMVHCADLSNPTKPLQLYRQWTDRIMEEFFRQGDRERERGMEISPMCDKHNASVEKSQVGFIDYIVHPLWETWADLVHPDAQDILDTLEDNREWYQSTIPQSPSPAPDDPEEGRQGQTEKFQFELTLEEDGESDTEKDSGSQVEEDTSCSDSKTLCTQDSESTEIPLDEQVEEEAVGEEEESQPEACVIDDRSPDT
notes: Expressed in E. coli and purified; Printed both GST-PDE4D5 and PDE4D5-GST; also called PDE4D5-GST; not shown: glutathione-S-transferase (GST) tag
B2: PDE4D5 (transfected into HEKB2 / HEK293 cells) (enzyme)
chain: B1 chain
B3: His-HSP20 (purified recombinant His-tagged HSP20) (other)
chain: MEIPVPVQPSWLRRASAPLPGLSAPGRLFDQRFGEGLLEAELAALCPTTLAPYYLRAPSVALPVAQVPTDPGHFSVLLDVKHFSPEEIAVKVVGEHVEVHARHEERPDEHGFVAREFHRRYRLPPGVDPAAVTSALSPEGVLSIQAAPASAQAPPPAAAK
notes: Expressed in E. coli BL21 from pET28c and purified on nickel; also called HSP20-His; HSP20-6His; not shown: His tag from the pET28c vector

In assay [1] the test system is cAMP in the vicinity of HSP20. The assay can be described thus: cAMP FRET with cytosolic and HSP20-targeted reporters in cardiac myocytes. Format: cell-based, rat. The source says:
FIG. 5. Measurement of relative cAMP concentration in the vicinity of HSP20 using targeted cAMP FRET probes. A, Representative traces showing FRET ratios that indicate relative cAMP concentrations measured by cytosolic and HSP20 targeted cAMP reporter constructs. B, Upper panel, graphical depiction of maximum FRET ratios achieved using both cytosolic and HSP20-targeted probes following treatment with isoprenaline (Iso), rolipram (Roli) and IBMX. Lower panel, images of the localisation of cytosolic and HSP20-targeted cAMP reporter constructs.
The Hsp20-targeted cAMP FRET probe was generated by cloning the Hsp20 open reading frame, excluding the stop codon, immediately 5′ to the EPACG-based FRET sensor^55. Hsp20 open reading frame was amplified from the Ultimate™ ORF clone IOH57317 (Invitrogen) using the following primers to incorporate HindIII restriction sites at both 5′ and 3′ ends: Forward 5′-gcacaagctt[…]-3′ (SEQ ID NO: 70) Reverse 5′-gcacaagctt[…]-3′ (SEQ ID NO: 71). […]
Primary cultures of ventricular cardiac myocytes were prepared from 1-3 day old Sprague-Dawley rats, as described above. […] FRET changes were measured following background subtraction by dividing the intensity of emissions at 480 nm and 545 nm, following excitation at 440 nm. Data are expressed as dR/R0, where R=fret ratio at time t (sec), R0=fret ratio at time zero, and dR=R−R0. […]

The test system of assay [2] is Phospho-Ser16 HSP20 in HEKB2 cells. Briefly: Ser16 phosphorylation of HSP20 in HEKB2 cells overexpressing HSP20 (Western blot). The conditions noted are these: HEKB2 cells. Format: cell-based. On the procedure: FIG. 1. The phosphorylation of HSP20 at Ser16 is modulated by PDE4 activity in HEKB2 cells. A, HEKB2 cells overexpressing HSP20 or HSP20 ser16-Ala mutant were treated with isoprenaline for indicated times. Cellular lysates were blotted for HSP20 and Phospho-Ser16 HSP20. B, HEKB2 cells overexpressing HSP20 were treated with isoprenaline for indicated times, Cellular lysates were blotted for HSP20 and Phospho-Ser16 HSP20. C, HEKB2 cells overexpressing HSP20 were treated with isoprenaline for indicated times following pre-treatment with the PDE4-specific inhibitor, rolipram. Cellular lysates were blotted for HSP20 and Phospho-Ser16 HSP20. D, Quantifications of data from FIGS. 1B and 1C (n=4). * Denotes significance at a level p<0.05 E, Lysate from untransfected HEKB2 cells was blotted for HSP20 and Phospho-Ser16 HSP20.
(§1) HEK293B2 cells are a stable cell line overexpressing the GFP-tagged β2AR were cultured as previously described^48. HEK293B2 cells were transiently transfected with wild type HSP20 or a phosphorylation defective HSP20 (S16A) or a phosphorylation mimic HSP20 (S16D). Neonatal cardiac myocytes were prepared and cultured as previously described^30. Cell lysis, immunopurification and western blotting was done as described before by us in some detail^48. Briefly, HEK 293 cells were transiently transfected with wild-type HSP20 by using Polyfect Transfection Reagent (Qiagen). Transfected HEK 293 cells were treated with 10 μM bs906 or 10 μM control peptide for 0, 15, 30, 60 and 120 min. Control and treated transfected HEK 293 cells were then washed thrice with ice cold PBS (phosphate buffered saline) before cellular lysates were prepared. Cellular lysates were prepared in lysis buffer containing 25 mM Hepes, pH 7.5, 2.5 mM EDTA, 50 mM NaCl, 50 mM NaF, […], 10% (v/v) glycerol, 1% (v/v) Triton X-100 and Complete™ EDTA-free protease inhibitor cocktail tablets (Roche). Protein concentration of lysates were determined using the Bradford assay and all samples were equalised for protein concentration. Proteins were separated by SOS/PAGE (4-12% Bis-Tris gels) and transferred onto nitrocellulose membranes for Western blotting. Antibodies were used to detect phospho-proteins and native proteins in lysates from control and treated cells
In contrast to this, when we transfected these cells with a phospho-null mutant form, Ser16Ala-Hsp20, then no such change was observed (FIG. 1A). In order to evaluate whether PDE4 activity played a role in regulating this phosphorylation process in Hsp20-transfected HEKB2 cells, cells that had either been pre-treated or not with the PDE4 selective inhibitor rolipram were subsequently challenged with isoprenaline (1 μM) (FIGS. 1B and C). […] Endogenous levels of phospho-HSP20 or HSP20 were not detectable in HEKB2 cells (FIG. 1E).
(In western blotting, separated proteins are transferred to a membrane and probed.)

For assay [3], the system named is Phospho-Ser16 HSP20 in neonatal cardiac myocytes. Briefly: Ser16 phosphorylation of endogenous HSP20 in neonatal cardiac myocytes (Western blot). Format: cell-based, rat. The protocol:
FIG. 2. The phosphorylation of HSP20 at Ser16 is modulated by PDE4 activity in cardiac myocytes. A, Neonatal cardiac myocytes were treated with isoprenaline for indicated times with or without pre-treatment with the PDE4-specific inhibitor, rolipram. Cellular lysates were blotted for HSP20 and Phospho-Ser16 HSP20. B, Quantifications of data from FIG. 2A (n=3). * Denotes significance at a level p<0.05 over iso treatment.
as §1
To determine whether inhibition of PDE4 activity had similar effects on endogenous phospho-HSP20 levels in heart cells, similar experiments were undertaken using neonatal cardiomyocytes (FIG. 2).

In assay [4] the target is B3. The assay can be described thus: GST pull-down with purified recombinant proteins, immunoblot (data not shown). The protocol: (§2) GST-PDE4 fusions proteins (500 μl of 2 μM) were mixed with 100 μl slurry of 50% (v/v) PBS-washed Glutathione beads for 2 h at 4° C. The beads were pelleted by centrifugation (14,000 g, 1 min) and washed twice with PBS containing 1% Triton X-100 before the addition of equal molar amounts of […] fusion protein in a 1 mL solution of PBS and Triton X-100 containing 5 mM dithiothreitol. After a 2 h incubation at 4° C. the beads were collected and washed three times with PBS and eluted in 100 μl of 2× Laemmli buffer. Eluates were resolved by SDS-PAGE, and the HSP20-His fusion proteins were detected by immunoblotting.
(§3) To evaluate further Hsp20 association with PDE4, we set out to determine whether they interacted directly. In order to do this we expressed Hsp20 and various PDE4 species in E. coli and purified them for use in pull-down assays. […] Additionally, we performed the converse experiment and first did pull-downs of HSP20, using its His tag, and then tested for co-purification of PDE4 species.

Assay [5] concerns the target T1, HSP20, wild type, transfected into HEKB2 / HEK293 cells (human, UniProt O14558 1-160).
T1 construct: Expressed from pcDNA6.2-Hsp20 (Gateway cloning into pcDNA6.2/V5-DEST); Immunopurified from cell lysates; also called HSP20 wt
T1 sequence: B3 chain
Briefly: co-immunopurification with HSP20 from co-transfected HEKB2 cells, Western blot.
Method: HEK293B2 cells are a stable cell line overexpressing the GFP-tagged β₂AR were cultured as previously described⁴⁸. HEK293B2 cells were transiently transfected with wild type HSP20 or a phosphorylation defective HSP20 (S16A) or a phosphorylation mimic HSP20 (S16D). […] Cell lysis, immunopurification and western blotting was done as described before by us in some detail⁴⁸. Briefly, HEK 293 cells were transiently transfected with wild-type HSP20 by using Polyfect Transfection Reagent (Qiagen). […] Control and treated transfected HEK 293 cells were then washed thrice with ice cold PBS (phosphate buffered saline) before cellular lysates were prepared. Cellular lysates were prepared in lysis buffer containing 25 mM Hepes, pH 7.5, 2.5 mM EDTA, 50 mM NaCl, 50 mM NaF, μM sodium pyrophosphate, 10% (v/v) glycerol, 1% (v/v) Triton X-100 and Complete™ EDTA-free protease inhibitor cocktail tablets (Roche). Protein concentration of lysates were determined using the Bradford assay and all samples were equalised for protein concentration. […] Antibodies were used to detect phospho-proteins and native proteins in lysates from control and treated cells
As before, we immunopurified HSP20 and blotted for the presence of transfected isoforms (FIG. 38).

The next assay addresses T2, GST alone (UniProt P08515 1-218 = GST).
T2 construct: Control of the pull-down
Briefly: GST pull-down with purified recombinant proteins, immunoblot. The protocol: as §2, §3

T2 sequence (P08515 whole entry): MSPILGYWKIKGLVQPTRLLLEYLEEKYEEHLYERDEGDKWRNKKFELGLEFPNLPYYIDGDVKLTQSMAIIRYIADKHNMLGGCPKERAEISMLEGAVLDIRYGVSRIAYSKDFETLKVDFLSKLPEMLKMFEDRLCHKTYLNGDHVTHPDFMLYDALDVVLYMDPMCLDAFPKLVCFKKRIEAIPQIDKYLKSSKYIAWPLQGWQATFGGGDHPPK

As to `CC(C)Cn1c(=O)n(C)c(=O)c2[nH]cnc21` [IBMX], the “cAMP FRET response, HSP20-targeted reporter compared with cytosolic probe” value in assay [1] is reported as “identical maximal response”. `COc1ccc(C2CNC(=O)C2)cc1OC1CCCC1` (stereo not drawn) [rolipram]: the “isoprenaline-stimulated HSP20 phosphorylation” value in assay [2] (rolipram pre-treatment then isoprenaline 1 μM) was “increased isoprenaline-stimulated HSP20 phosphorylation”. Further, in assay [2] (rolipram treatment alone), the “phospho-HSP20 levels compared to resting cells” value is given as “clear increase in phospho-HSP20 levels”. Moreover, in assay [3] (cardiomyocytes, PDE4 inhibition alone), the phospho-HSP20 levels result is “marked increase in phospho-HSP20 levels”. Moreover, the “isoprenaline-induced increase in endogenous phospho-HSP20 levels” value in assay [3] (neonatal cardiomyocytes, rolipram pre-treatment) is reported as “markedly augmented”. Further, the “cAMP FRET response, HSP20-targeted reporter compared with cytosolic probe” value in assay [1] is “clearly greater in the HSP20 targeted reporter”. For B1, the binding result in assay [4] is recorded as “binds”. B2: in assay [5], the binding result is listed as “binds”. In the case of B3, the binding result in the assay with GST alone is recorded as “no binding”.
